Measurements: patent publication EP2712863B1, “Novel inhibitors of bacterial biofilms and related methods” (Sequoia Sciences, Inc., priority 2012, dated 2014)
In brackets after ≈: the same amount, converted by molar mass. Like-named read-outs stand apart in the source and are kept apart here.

How the values were obtained:
P. aeruginosa biofilm = assay: Biofilm growth assay with antibiotic disks (synergy); format: cell-based; settings: 0.125 µg/ml in the agar with colistin 10 µg disks
Description: INHIBITION OF THE GROWTH OF PREFORMED BIOFILMS. The Biofilm Growth Assay as described in Example VII was performed in round plates with the compounds of the invention in agar on half of the plate and antibiotic disks placed onto the agar containing the compounds of the invention.
The Biofilm Growth Assay was performed as described in Example VIII. 2 to 4 antibiotic disks were placed onto the agar containing a compound of the invention in a line parallel to the line that separates the two agars in one round plate. Appropriate negative and positive control plates were performed as known to those skilled in the art.

P. aeruginosa = assay: Biofilm growth assay (spreading biofilm on semi-solid agar); format: cell-based; design: P. aeruginosa (n=10): unit not given here; settings: for IC85: Pseudomonas aeruginosa; for P. aeruginosa (n=10): Table 6, inhibitory concentration in the biofilm growth assay, n = number of isolates tested
Pseudomonas syringae = assay: Biofilm growth assay, plant pathogens; format: cell-based; settings: 0.5% Noble agar, 30°C, approximately 24 to 48 hours
Xanthomonas campestris = assay: Biofilm growth assay, plant pathogens; format: cell-based; settings: 0.5% Noble agar, 30°C, approximately 24 to 48 hours
[1] = Bioavailability in mice (serum level after oral or IP administration); format: in vivo; settings: orally or via IP injection at approximately 20 mg/kg to 50 mg/kg; 30 minutes or 1 hour after administration
Description: The bioavailabilities of certain compounds were examined in mice. Administration of the compounds was performed orally and by intraperitoneal (IP) injection using a vehicle as known to those skilled in the art. Many vehicles can be used to examine bioavailability. Prior to administration, each vehicle was optimized based on compound solubility according to the formulation research conducted by Uckun et al. (Arznelmittel-Forschung (Drug Research) 2007; 57(4):218-226). […] The concentration of PEG400 is modulated depending upon solubility of the compounds and the amount of aqueous phase added (0.02 M citrate and 0.9% NaCl).

[2] = tested on: Pectobacterium atrosepticum; assay: Biofilm growth assay, plant pathogens; format: cell-based; settings: 0.5% Noble agar, 30°C, approximately 24 to 48 hours
Salmonella spp. = assay: Biofilm growth assay, multiple isolates; format: cell-based; settings: Table 6; inhibitory concentration in the biofilm growth assay; n = number of isolates tested
Description: (§1) The biofilm growth assay was carried out to measure swarming or biofilm spreading on semi-solid agar media in round plates (for example, 100 × 15 mm), also referred to as Petri dishes. For E. coli, the plates contained LB medium with 0.6% agar and 0.5% glucose. P. aeruginosa plates were made with M8 agar supplemented with 0.2% glucose, 100 µM CaCl2, 1 mM MgSO4, and 0.5% Casamino acids. The agar plates of this assay consisted of 0.4% to 0.7% agar (Bacto or Noble agar), although other media may also be used as described in the literature and known to those skilled in the art. Test compounds at the desired concentration were added to the cooled, autoclaved media. Portions of the media were then poured into the plates (20 mL/plate), and the plates allowed to dry at room temperature for approximately 3 to 4 hours. Alternatively, however, plates may be dried in a laminar flow hood for approximately fifteen to twenty minutes. Overnight cultures were grown in a 37°C shaker in LB (E. coli) or TSB (P. aeruginosa). Plates were inoculated by placing 5 µL of the appropriate overnight culture in the centers of the plates. The plates then were incubated overnight at 37°C. The area of the zone of spreading bacteria was then measured and replicates are averaged. Percent inhibition was calculated as 100 × (area without compound - area with compound)/(area without compound). An active compound was considered that which reduces the area of the spreading biofilm compared to negative controls by greater than or equal to 85%. The values shown in Table 1 are the concentrations of compounds (µg/ml) tested in the biofilm growth assay that reduce the area of the spreading biofilm compared to negative controls by greater than or equal to 85% unless noted differently in Table 1. A > ("greater than" symbol) as used in Table 1 is well understood to those skilled in the art as an indication that the listed concentration was not effective at this concentration.
(§2) Table 6, below, lists the inhibitory concentrations of select compounds and antibiotics in the biofilm growth assay against various gram-negative bacterial biofilms. "N" means the number of isolates of bacteria tested. The biofilm growth assay procedure detailed in Example I, above, was followed. Burkholderia cepacia used media consisting of M9 salts, 100 µM CaCl2, 1 mM MgS04, and 0.7% citrate in 0.4% Noble agar. Salmonella spp. used media consisting of Nutrient Broth with 0.5% glucose in 0.5% Noble agar.

Burkholderia cepacia = assay: Biofilm growth assay, multiple isolates; format: cell-based; settings: Table 6; inhibitory concentration in the biofilm growth assay; n = number of isolates tested
Description: as §1, §2

E. coli = assay: Biofilm growth assay (spreading biofilm on semi-solid agar); format: cell-based; design: E. coli (n=10): unit: ug/mL; settings: for IC85: Escherichia coli; for E. coli (n=10): Table 6, inhibitory concentration in the biofilm growth assay, n = number of isolates tested
Procedure, shortened: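 Spreading (swarming) biofilm on semi-solid agar: E. coli on LB with 0.6% agar and 0.5% glucose; P. aeruginosa on M8 agar with 0.2% glucose, 100 µM CaCl2, 1 mM MgSO4, 0.5% Casamino acids. Compound in medium; 5 µL overnight culture spotted centrally, 37°C overnight. Value: concentration (µg/ml) giving ≥85% reduction in spread area versus negative control.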

Evaluation of salts = format: physicochemical
Description: Evaluation of Compound 62 (Table 4) salt formation was performed. […] As stated herein, the invention also includes compounds and their salts. Evaluation of Compound 64 (Table 4) salt formation was performed. HCl (mono and bis), p-TSA (bis), BSA (bis), MSA (bis), H2SO4 (mono), and H3PO4 (mono) provided salts with crystallinity. […] As stated herein, the invention also includes compounds and their salts.

[3] = Table 2, concentration that reduces the area of the spreading biofilm by >= 85%
[4] = Table 4, concentration that reduces the area of the spreading biofilm by >= 85%, read-out: P. aeruginosa
[5] = Table 4, concentration that reduces the area of the spreading biofilm by >= 85%, read-out: E. coli

CC1(C)CC[C@]2(C(=O)O)CC[C@]3(C)C(=CCC4[C@@]5(C)Cc6c(n[nH]c6N)C(C)(C)C5CC[C@]43C)C2C1 (stereo in doubt) [Compound 1, (4aS,6aS,6bR,13aR)-12-Amino-2,2,6a,6b,9,9,13a-heptamethyl-2,3,4,4a,5,6,6a,6b,7,8,8a,9,11,13,13a,13b,14,15b-octadecahydro-1H-chryseno[1,2-f]indazole-4a-carboxylic acid]
combination with colistin at preventing the growth of P. aeruginosa biofilms (Figure 2) (P. aeruginosa biofilm): synergistic
growth of the spreading P. aeruginosa biofilm (Figure 1) (P. aeruginosa; 0.5 µg/ml in the agar, overnight incubation at 37°C): prevented the growth of the spreading P. aeruginosa biofilm
optimal working concentration (P. aeruginosa; Figure 2 legend): 0.5 µg/mL
IC85 (P. aeruginosa; Table 1, concentration that reduces the area of the spreading biofilm vs negative controls by >= 85%, > means not effective at this concentration, read-out: P. aeruginosa): 0.5 µg/mL (≈ 1.01 µM)
P. aeruginosa (P. aeruginosa; [3]): 0.5 µg/mL
P. aeruginosa (n=10) (P. aeruginosa): 1
concentration found to inhibit the spreading biofilms (Pseudomonas syringae): 0.03 µg/mL
concentration found to inhibit the spreading biofilms (Xanthomonas campestris): 0.5 µg/mL
concentration in the serum of mice [1]: > 5000 ng/mL
concentration found to inhibit the spreading biofilms [2]: 0.06 µg/mL
inhibitory concentration in biofilm growth assay (Salmonella spp.): 1
inhibitory concentration (Burkholderia cepacia): 0.25
IC85 (E. coli; Table 1, concentration that reduces the area of the spreading biofilm vs negative controls by >= 85%, > means not effective at this concentration, read-out: E. coli): 1 µg/mL (≈ 2.03 µM)
E. coli (E. coli; [3]): 1 µg/mL
E. coli (n=10) (E. coli): 1

CC1(C)CC[C@]2(C(=O)O)CC[C@]3(C)C(=C(c4cccnc4)CC4[C@@]5(C)Cc6c(n[nH]c6N)C(C)(C)[C@@H]5CC[C@]43C)[C@@H]2C1 (stereo partly drawn) [Compound 12, (4aS,6aS,6bR,8aR,13aR,15bS)-12-Amino-2,2,6a,6b,9,9,13a-heptamethyl-15-(pyridin-3-yl)-2,3,4,4a,5,6,6a,6b,7,8,8a,9,11,13,13a,13b,14,15b-octadecahydro-1H-chryseno[1,2-f]indazole-4a-carboxylic acid]
IC85 (P. aeruginosa; Table 2, concentration that reduces the area of the spreading biofilm by >= 85%, read-out: P. aeruginosa): 0.5 µg/mL (≈ 0.876 µM)
concentration in the serum of mice [1]: > 5000 ng/mL
IC85 (E. coli; Table 2, concentration that reduces the area of the spreading biofilm by >= 85%, read-out: E. coli): 1 µg/mL (≈ 1.75 µM)

CC1(C)CC[C@]2(C(N)=O)CC[C@]3(C)C(=CCC4[C@@]5(C)Cc6c(n[nH]c6N)C(C)(C)C5CC[C@]43C)C2C1 (stereo partly drawn) [Compound 62, (4aS,6aS,6bR,13aR)-12-Amino-2,2,6a,6b,9,9,13a-heptamethyl-2,3,4,4a,5,6,6a,6b,7,8,8a,9,11,13,13a,13b,14,15b-octadecahydro-1H-chryseno[1,2-f]indazole-4a-carboxamide]
IC85 (P. aeruginosa; [4]): 1 µg/mL (≈ 2.03 µM)
IC85 (E. coli; [5]): 1 µg/mL (≈ 2.03 µM)
physical properties compared to freebase (Evaluation of salts; p-toluenesulfonic acid (mono) and H3PO4 (bis) salts): most desirable physical properties

CN(C)C[C@]12CCC(C)(C)CC1C1=CCC3[C@@]4(C)Cc5c(n[nH]c5N)C(C)(C)C4CC[C@@]3(C)[C@]1(C)CC2 (stereo partly drawn) [Compound 64, (4aS,6aS,6bR,13aR)-4a-((Dimethylamino)methyl)-2,2,6a,6b,9,9,13a-heptamethyl-2,3,4,4a,5,6,6a,6b,7,8,8a,9,11,13,13a,13b,14,15b-octadecahydro-1H-chryseno[1,2-f]indazol-12-amine]
IC85 (P. aeruginosa; [4]): 0.5 µg/mL (≈ 0.987 µM)
concentration in the serum of mice [1]: > 5000 ng/mL
IC85 (E. coli; [5]): 1 µg/mL (≈ 1.97 µM)
aqueous solubility compared to freebase (Evaluation of salts; Bis-MSA and mono-H3PO4 salts): increased aqueous solubility

CC1(C)CC[C@]2(c3cc(O)[nH]n3)CC[C@]3(C)C(=CCC4[C@@]5(C)Cc6c(n[nH]c6N)C(C)(C)C5CC[C@]43C)C2C1 (stereo partly drawn) [Compound 68, 3-((4aS,6aS,6bR,13aR)-12-Amino-2,2,6a,6b,9,9,13a-heptamethyl-2,3,4,4a,5,6,6a,6b,7,8,8a,9,11,13,13a,13b,14,15b-octadecahydro-1H-chryseno[1,2-f]indazol-4a-yl)-1H-pyrazol-5-ol]
IC85 (P. aeruginosa; read-out: P. aeruginosa (µg/ml)): 0.5 µg/mL (≈ 0.94 µM)
concentration in the serum of mice [1]: > 5000 ng/mL
IC85 (E. coli; read-out: E. coli (µg/ml)): 0.5 µg/mL (≈ 0.94 µM)

NC[C@H]1O[C@H](O[C@H]2[C@H](O)[C@@H](O[C@H]3O[C@H](CO)[C@@H](O)[C@H](N)[C@H]3O)[C@H](N)C[C@@H]2N)[C@H](N)C[C@@H]1O [Tobramycin, tobramcyin, reference compound]
P. aeruginosa (n=10) (P. aeruginosa): 4
inhibitory concentration in biofilm growth assay (Salmonella spp.): 8
inhibitory concentration (Burkholderia cepacia): > 64
E. coli (n=10) (E. coli): 16
